Results reported in patent publication EP3628672A1 (priority 2018, dated 2020).
Read-outs that look alike come from different tables or passages of the source.

Experiments:
[1] = target: T1, purified LasB protein from P. aeruginosa (Pseudomonas aeruginosa, UniProt P14756); assay: Fluorometric assay to determine Ki (Abz-Ala-Gly-Leu-Ala-p-Nitro-Benzyl-Amide substrate); type: biochemical
T1 construct: purchased Merck or Charles River Laboratories
Description: (§1) Experiments were therefore conducted (1) to measure the potency of inhibition of compounds of the invention against purified Pseudomonas aeruginosa LasB enzyme and also experiments were conducted (2) to measure the ability of compounds of the invention to inhibit LasB-catalysed elastin degradation. The first assay uses a commercial fluorescent synthetic peptide and purified LasB enzyme. The LasB hydrolysis kinetics are measured allowing the determination of the IC50 and Ki of the inhibitors; the second is a more physiological assay using dialysed Pseudomonas aeruginosa supernatant as source of enzyme, plus its natural substrate Elastin. It is an "end point assay" that determines the percentage of LasB inhibition by each compound for one particular time point and inhibitor concentration. Technical details are described below:
This assay uses commercially available substrate (Abz-Ala-Gly-Leu-Ala-p-Nitro-Benzyl-Amide (Ex: 340 nm, Em: 415 nm) from Peptide International) and purified LasB protein from P. aeruginosa (provided by Merck or Charles River Laboratories). It is performed to determine LasB elastase activity and assess compound inhibition in 96-well plate format. All compounds of Formula (I) were assessed using the method described below.
Method: 10 to 140 ng/ml purified LasB is incubated with 250 µM Abz-Ala-Gly-Leu-Ala-p-Nitro-Benzyl-Amide in 50 mM Tris-HCl pH 7.4, 2.5 mM CaCl2, 0.01% of Triton X100 at 37°C. LasB activity (corresponding to fluorescence emission induced by substrate hydrolysis) is measured over 30 min at 37°C with a fluorescence plate reader such as the Perkin Elmer Envision or similar. Different range of inhibitor concentrations are routinely assessed depending of inhibitor potency from 0.0016 to 200 µM (2-fold dilutions series) in order to determine IC50.
The equation used to calculate the Ki from IC50 is: Ki = IC50 / (1+([S]/Km)) where [S] = 250 µM and Km = 214 µM.

LasB = target: T2, LasB (Pseudomonas aeruginosa, UniProt P14756); assay: Elastin assay to determine % inhibition (Elastin Congo-Red, dialysed culture supernatant); type: biochemical, P. aeruginosa PAO1; conditions: read-out: Elastin hydrolysis % inhibition @ 50 / 25 µM inhibitor concentration
T2 construct: uses as source of enzyme dialysed supernatant from P. aeruginosa PAO1; endogenous in cells; host or cells: P. aeruginosa PAO1 culture supernatant, filtered and dialysed
T2 sequence (P14756 198-498): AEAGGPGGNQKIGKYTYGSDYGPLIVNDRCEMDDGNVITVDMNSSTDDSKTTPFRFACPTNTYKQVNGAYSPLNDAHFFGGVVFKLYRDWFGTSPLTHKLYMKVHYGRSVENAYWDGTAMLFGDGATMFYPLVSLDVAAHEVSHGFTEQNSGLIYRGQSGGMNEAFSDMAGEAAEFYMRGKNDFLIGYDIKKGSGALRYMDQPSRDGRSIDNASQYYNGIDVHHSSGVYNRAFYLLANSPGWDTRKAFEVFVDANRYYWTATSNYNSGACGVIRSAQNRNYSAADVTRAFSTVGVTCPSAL
Description: as §1
The Elastin assay uses as source of enzyme dialysed supernatant from P. aeruginosa PAO1 and the Elastin Congo-Red as substrate. The natural LasB substrate, elastin, is complexed with the congo-red dye (Elastin Congo-Red, ECR). The elastolysis activity from the culture supernatant will degrade elastin and release the congo-red dye into the supernatant. This red dye release can be measured with a spectrophotometer.
Method: To determine LasB elastase activity and assess compound inhibition, an overnight culture of P. aeruginosa strain PAO1 is diluted in LB medium. After reaching an OD600nm of 0.6, this culture is diluted and incubated for additional 18-24 hours in a shaking incubator. Culture supernatants are recovered by centrifugation and filtrated through a […] filter. These supernatants are dialysed (filtration molecules < 20kDa) into a 50 mM Tris-HCl pH 7.4, 2.5 mM CaCl2 solution at 4°C under agitation for 24 hours. Supernatant dialysed is then mixed volume/volume with the ECR suspension (20 mg/mL of ECR in 100 mM Tris-HCl pH 7.4 buffer supplemented with 1 mM CaCl2) supplemented with Triton X100 (final concentration of 0.01%) in presence of DMSO (positive control) and/or different concentrations of compound (routinely 50 to 1.56 µM). As a negative control, the dialysed supernatant is replaced by Tris-HCl solution (50 mM Tris-HCl pH 7.4, 2.5 mM CaCl2). The mixed reaction is then incubated overnight in a 37°C shaking incubator. The reaction supernatant is recovered by centrifugation and the release of congo-red is measured by its absorbance at 495 nm (OD495nm).
Percentage inhibition is determined using the following equation: ((OD495nmvalue of positive control−OD495nmvalue of negative control)−(OD495nmvalue of treated supernatant−OD495nmvalue of positive control))/(OD495nmvalue of positive control−OD495nmvalue of negative control) × 100. [formula]

T1 sequence (P14756 198-498): as above

Row | Structure (SMILES) | Ki [1] [nM] | inhibition at 25 µM (LasB) [%] | Ki ([1]; Ki calculated from IC50, [S] = 250 µM, Km = 214 µM, 37°C, pH 7.4) [nM]
1 | O=C(O)CC1(C(=O)NCc2ncc(-c3ccccc3)s2)Cc2ccccc2C1 [Example 2, 2-[2-[(5-phenylthiazol-2-yl)methylcarbamoyl]indan-2-yl]acetic acid] | 200 to 10000 | 10 to 60 | 
2 | O=C(O)CC1(C(=O)NCc2nc(-c3ccccc3)cs2)Cc2cc(F)c(F)cc2C1 [Example 3, 2-[5,6-difluoro-2-[(4-phenylthiazol-2-yl)methylcarbamoyl]indan-2-yl]acetic acid] | < 50 | > 75 | 
3 | COc1cccc(-c2csc(CNC(=O)C3(CC(=O)O)Cc4ccccc4C3)n2)c1 [Example 5, 2-[2-[[4-(3-methoxyphenyl)thiazol-2-yl]methylcarbamoyl]indan-2-yl]acetic acid] | 50 to 200 | 60 to 75 | 
4 | COc1ccc(-c2csc(CNC(=O)C3(CC(=O)O)Cc4ccccc4C3)n2)cc1 [Example 6, 2-[2-[[4-(4-methoxyphenyl)thiazol-2-yl]methylcarbamoyl]indan-2-yl]acetic acid] | 50 to 200 | > 75 | 
5 | O=C(O)CC1(C(=O)NCc2nc(-c3ccc(Cl)cc3)cs2)Cc2ccccc2C1 [Example 7, 2-[2-[[4-(4-chlorophenyl)thiazol-2-yl]methylcarbamoyl]indan-2-yl]acetic acid] | 50 to 200 | 60 to 75 | 
6 | O=C(O)CC1(C(=O)NCc2nc(-c3cccnc3)cs2)Cc2ccccc2C1 [Example 8, 2-[2-[[4-(3-pyridyl)thiazol-2-yl]methylcarbamoyl]indan-2-yl]acetic acid] | 50 to 200 | 60 to 75 | 
7 | O=C(O)CC1(C(=O)NCc2nc(-c3ccccn3)cs2)Cc2ccccc2C1 [Example 9, 2-[2-[[4-(2-pyridyl)thiazol-2-yl]methylcarbamoyl]indan-2-yl]acetic acid] | 200 to 10000 | 60 to 75 | 
8 | O=C(O)CC1(C(=O)NCc2nc(-c3ccccc3O)cs2)Cc2ccccc2C1 [Example 10, 2-[2-[[4-(2-hydroxyphenyl)thiazol-2-yl]methylcarbamoyl]indan-2-yl]acetic acid] | 50 to 200 | 10 to 60 | 
9 | O=C(O)CC1(C(=O)NCc2nc(-c3ccc(O)cc3)cs2)Cc2ccccc2C1 [Example 11, 2-[2-[[4-(4-hydroxyphenyl)thiazol-2-yl]methylcarbamoyl]indan-2-yl]acetic acid] | 50 to 200 | 60 to 75 | 
10 | O=C(O)CC1(C(=O)NCc2nc(-c3cccc(O)c3)cs2)Cc2ccccc2C1 [Example 12, 2-[2-[[4-(3-hydroxyphenyl)thiazol-2-yl]methylcarbamoyl]indan-2-yl]acetic acid] | 50 to 200 | 60 to 75 | 
11 | O=C(O)CC1(C(=O)NCc2nc(-c3ccccc3OCCO)cs2)Cc2ccccc2C1 [Example 13, 2-[2-[[4-[2-(2-hydroxyethoxy)phenyl]thiazol-2-yl]methylcarbamoyl]indan-2-yl]acetic acid] | 50 to 200 | 60 to 75 | 
12 | NCCOc1ccccc1-c1csc(CNC(=O)C2(CC(=O)O)Cc3ccccc3C2)n1 [Example 14, 2-[2-[[4-[2-(2-aminoethoxy)phenyl]thiazol-2-yl]methylcarbamoyl]indan-2-yl]acetic acid] | 200 to 10000 | 10 to 60 | 
13 | CN(C)CCNC(=O)c1ccc(-c2csc(CNC(=O)C3(CC(=O)O)Cc4ccccc4C3)n2)cc1 [Example 15, 2-[2-[[4-[4-[2-(dimethylamino)ethylcarbamoyl]phenyl]thiazol-2-yl]methylcarbamoyl]indan-2-yl]acetic acid] | 200 to 10000 | 60 to 75 | 
14 | CN1CCN(C(=O)c2ccc(-c3csc(CNC(=O)C4(CC(=O)O)Cc5ccccc5C4)n3)cc2)CC1 [Example 16, 2-[2-[[4-[4-(4-methylpiperazine-1-carbonyl)phenyl]thiazol-2-yl]methylcarbamoyl]indan-2-yl]acetic acid] | 200 to 10000 | 60 to 75 | 
15 | CN(C)[C@@H]1CCN(C(=O)c2ccc(-c3csc(CNC(=O)C4(CC(=O)O)Cc5ccccc5C4)n3)cc2)C1 [Example 19, 2-[2-[[4-[4-[(3R)-3-(dimethylamino)pyrrolidine-1-carbonyl]phenyl]thiazol-2-yl]methylcarbamoyl]indan-2-yl]acetic acid] | 200 to 10000 | 60 to 75 | 
16 | CN(C)C1CN(C(=O)c2ccc(-c3csc(CNC(=O)C4(CC(=O)O)Cc5ccccc5C4)n3)cc2)C1 [Example 20, 2-[2-[[4-[4-[3-(dimethylamino)azetidine-1-carbonyl]phenyl]thiazol-2-yl]methylcarbamoyl]indan-2-yl]acetic acid] | 200 to 10000 | 60 to 75 | 
17 | CN1CCN(C(=O)c2cccc(-c3csc(CNC(=O)C4(CC(=O)O)Cc5ccccc5C4)n3)c2)CC1 [Example 23, 2-[2-[[4-[3-(4-methylpiperazine-1-carbonyl)phenyl]thiazol-2-yl]methylcarbamoyl]indan-2-yl]acetic acid] | 200 to 10000 | 60 to 75 | 
18 | CN1CCN(c2ccc(-c3csc(CNC(=O)C4(CC(=O)O)Cc5ccccc5C4)n3)cc2)CC1 [Example 26, 2-[2-[[4-[4-(4-methylpiperazin-1-yl)phenyl]thiazol-2-yl]methylcarbamoyl]indan-2-yl]acetic acid] | 50 to 200 | 60 to 75 | 
19 | CN(C)C1CN(c2ccc(-c3csc(CNC(=O)C4(CC(=O)O)Cc5ccccc5C4)n3)cc2)C1 [Example 27] |  | 60 to 75 | 50 to 200
20 | CN1CCN(c2cccc(-c3csc(CNC(=O)C4(CC(=O)O)Cc5ccccc5C4)n3)c2)CC1 [Example 28, 2-[2-[[4-[3-(4-methylpiperazin-1-yl)phenyl]thiazol-2-yl]methylcarbamoyl]indan-2-yl]acetic acid] | 200 to 10000 | 60 to 75 | 
21 | CN1C[C@@H]2CN(c3ccc(-c4csc(CNC(=O)C5(CC(=O)O)Cc6ccccc6C5)n4)cc3)C[C@@H]2C1 [Example 30, 2-[2-[[4-[4-[(3aS,6aR)-2-methyl-1,3,3a,4,6,6a-hexahydropyrrolo[3,4-c]pyrrol-5-yl]phenyl]thiazol-2-yl]methylcarbamoyl]indan-2-yl]acetic acid] | 200 to 10000 | 10 to 60 | 
22 | COc1cc(N2CCN(C)CC2)ccc1-c1csc(CNC(=O)C2(CC(=O)O)Cc3ccccc3C2)n1 [Example 31, 2-[2-[[4-[2-methoxy-4-(4-methylpiperazin-1-yl)phenyl]thiazol-2-yl]methylcarbamoyl]indan-2-yl]acetic acid] | 50 to 200 | 60 to 75 | 
23 | COc1cc(N2CC(N(C)C)C2)ccc1-c1csc(CNC(=O)C2(CC(=O)O)Cc3ccccc3C2)n1 [Example 32, 2-[2-[[4-[4-[3-(dimethylamino)azetidin-1-yl]-2-methoxy-phenyl]thiazol-2-yl]methylcarbamoyl]indan-2-yl]acetic acid] | 50 to 200 | > 75 | 
24 | CN1CCN(c2ccc(-c3csc(CNC(=O)C4(CC(=O)O)Cc5ccccc5C4)n3)cn2)CC1 [Example 34, 2-[2-[[4-[6-(4-methylpiperazin-1-yl)-3-pyridyl]thiazol-2-yl]methylcarbamoyl]indan-2-yl]acetic acid] | 50 to 200 | 60 to 75 | 
25 | CN(C)C1CN(c2ccc(-c3csc(CNC(=O)C4(CC(=O)O)Cc5ccccc5C4)n3)cn2)C1 [Example 35, 2-[2-[[4-[6-[3-(dimethylamino)azetidin-1-yl]-3-pyridyl]thiazol-2-yl]methylcarbamoyl]indan-2-yl]acetic acid] | 50 to 200 | 60 to 75 | 
